Consider nine compounds from BindingDB's records for doi:10.1021/bi401043w (Mayo Clinic, 2013).

SMILES strings stand for the structures.

One test deals with Acetylcholinesterase (Homo sapiens, UniProt P22303). Briefly: Assay of Substrate Hydrolysis. The conditions noted are these: pH 7; 25 °C. The protocol: (§1) Assays were conducted at 25 C in 20 mM sodium phosphate buffer (pH 7.0) and 0.01% bovine serum albumin unless otherwise noted. AChE concentrations were varied to optimize measured rates.
Chain of Acetylcholinesterase (Homo sapiens, UniProt P22303) (P22303 whole entry): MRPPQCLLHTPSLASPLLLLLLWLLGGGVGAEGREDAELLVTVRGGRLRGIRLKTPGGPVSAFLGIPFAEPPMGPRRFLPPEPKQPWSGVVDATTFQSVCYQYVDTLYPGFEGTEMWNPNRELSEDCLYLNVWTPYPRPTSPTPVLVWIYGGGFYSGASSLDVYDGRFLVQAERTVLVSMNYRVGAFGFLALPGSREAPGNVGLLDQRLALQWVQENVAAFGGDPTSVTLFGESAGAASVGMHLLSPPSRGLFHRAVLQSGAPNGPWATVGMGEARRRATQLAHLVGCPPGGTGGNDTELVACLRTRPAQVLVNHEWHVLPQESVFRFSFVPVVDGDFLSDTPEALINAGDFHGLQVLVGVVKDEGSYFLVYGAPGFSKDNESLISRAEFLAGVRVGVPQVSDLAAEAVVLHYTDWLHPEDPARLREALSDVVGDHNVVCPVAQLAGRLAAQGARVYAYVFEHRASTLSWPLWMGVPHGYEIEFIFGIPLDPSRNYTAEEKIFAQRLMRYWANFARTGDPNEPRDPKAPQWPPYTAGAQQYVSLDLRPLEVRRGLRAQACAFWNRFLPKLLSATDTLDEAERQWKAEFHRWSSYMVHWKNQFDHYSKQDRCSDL
`COc1cc(-c2cc3c(c(=O)o2)C[C@]2(O)[C@@]4(C)C(=O)C=CC(C)(C)[C@]4(O)CC[C@@]2(C)O3)cc(OC)c1OC`: the affinity corresponds to a Ki of 1.7 nM.
On to `CCC1=C[C@@H]2Cc3nc4cc(Cl)ccc4c(N)c3[C@H](C1)C2` (racemic) [(1S)-7-chloro-15-ethyl-10-azatetracyclo[11.3.1.0^{2,11}.0^{4,9}]heptadeca-2(11),3,5,7,9,14-hexaen-3-amine], for which the Ki (in general, a dissociation constant, usually derived from enzyme kinetics or from competition with a known ligand) was 0.026 nM.
Compound `C/C=C1\C2C=C(C)CC1(N)c1ccc(=O)[nH]c1C2` (stereo not drawn) [(+)-Huperzine A] had a Ki of 4.6 nM.
Same read-out and setting: to `COc1cc2c(c3oc(=O)c4c(c13)CCC4=O)[C@@H]1C=CO[C@@H]1O2` [Aflatoxin B1] belongs 28000 nM; to `Cc1cccc2c3c(ccc12)C1=C(C(=O)C3=O)[C@@H](C)CO1` [Dihydrotanshinone I], 750 nM; to `Cc1ccc2c(c1)sc(-c1ccc(N(C)C)cc1)[n+]2C` [Thioflavin T, 1], 1000 nM.

Another test has as its target T1, Acetylcholinesterase (Mus musculus, UniProt P21836).
T1 sequence (P21836 whole entry): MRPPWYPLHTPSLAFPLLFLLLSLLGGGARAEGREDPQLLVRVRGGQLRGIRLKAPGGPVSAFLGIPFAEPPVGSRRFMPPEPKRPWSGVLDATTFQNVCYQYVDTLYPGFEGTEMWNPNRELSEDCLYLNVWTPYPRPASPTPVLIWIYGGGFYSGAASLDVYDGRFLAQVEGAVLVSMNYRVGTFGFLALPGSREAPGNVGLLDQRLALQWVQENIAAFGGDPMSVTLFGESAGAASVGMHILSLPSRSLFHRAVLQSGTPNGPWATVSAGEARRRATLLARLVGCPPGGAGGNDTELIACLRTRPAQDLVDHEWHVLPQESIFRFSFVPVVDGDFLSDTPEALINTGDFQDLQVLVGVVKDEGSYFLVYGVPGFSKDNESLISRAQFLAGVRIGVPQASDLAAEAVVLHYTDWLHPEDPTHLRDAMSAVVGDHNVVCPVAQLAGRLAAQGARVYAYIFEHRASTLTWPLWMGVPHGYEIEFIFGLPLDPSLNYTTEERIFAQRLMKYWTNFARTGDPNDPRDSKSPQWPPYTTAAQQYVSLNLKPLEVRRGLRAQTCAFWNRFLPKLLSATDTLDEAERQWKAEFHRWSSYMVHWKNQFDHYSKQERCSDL
As to the kind of experiment: Assay of Substrate Hydrolysis. The note with it: pH 7; 25 °C. How it is done:
as §1
For the compound `O=c1ccc2ccccc2o1` [2H-chromen-2-one], the Ki was found to be 9300 nM. That is a single-digit micromolar value.
For the compound `CC[N+](C)(C)c1cccc(O)c1` [Edrophonium Chloride, 3], the Ki stood at 250 nM.
Compound `C[n+]1c2ccccc2cc2ccccc21` [N-methylacridinium] registered a Ki of 310 nM.
